One experiment has as its system MDAMB231 cells. Briefly: MTS assay of metabolic activity in MDAMB231 cells. The class given is cell-based, human. To be noted: MDAMB231, dose-response, 24 h, 1 % FBS. The method, then:
Six thousand cells (MDAMB231 and E0771) per well were seeded in 96-well plates and cultured in medium containing 1 % FBS. Cells were treated with varying concentrations of compounds and, after 24 h, incubated with MTS [3-(4,5-dimethylthiazol-2-yl)-5-(3-carboxymethoxyphenyl)-2-(4 sulfophenyl)2Htetrazolium]and PMS (phenazine methosulfate), following the instructions of the CellTiter 96® Aqueous Non-Radioactive Cell Proliferation Assay (Promega). Measurements were performed using a TECAN Infinite M200 plate reader with […] at 490 nm.
For orientation: Formazan colour is commonly taken as a measure of viable cells.

A further experiment deals with E0771 tumors. More on the design: method as in PMID 35853086, PMID 36063727, PMID 33531624, PMID 39962052. To be noted: previous studies; cited from earlier work.
The target of experiment [1] is T1, Human monoamine oxidase A (Mao-A) (Homo sapiens, UniProt P21397).
T1 construct: purchased Sigma-Aldrich
T1 sequence (P21397 1-527): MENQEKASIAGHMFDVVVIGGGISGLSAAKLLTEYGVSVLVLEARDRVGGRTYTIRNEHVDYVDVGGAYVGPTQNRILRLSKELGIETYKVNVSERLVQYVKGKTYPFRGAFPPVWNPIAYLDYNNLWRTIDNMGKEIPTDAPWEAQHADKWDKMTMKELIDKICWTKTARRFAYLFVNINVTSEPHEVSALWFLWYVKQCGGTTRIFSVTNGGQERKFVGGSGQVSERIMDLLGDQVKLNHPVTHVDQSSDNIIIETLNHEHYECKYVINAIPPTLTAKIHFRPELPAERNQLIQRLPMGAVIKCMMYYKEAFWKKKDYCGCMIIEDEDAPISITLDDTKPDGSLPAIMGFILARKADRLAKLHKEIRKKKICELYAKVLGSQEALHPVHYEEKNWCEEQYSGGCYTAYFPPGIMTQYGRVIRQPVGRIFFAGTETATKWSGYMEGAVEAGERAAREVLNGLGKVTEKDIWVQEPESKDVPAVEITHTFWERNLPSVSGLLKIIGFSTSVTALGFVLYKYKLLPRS
Briefly: Mao-A activity assay (commercial kit, p-tyramine, H2O2 fluorimetry). To be noted: 25 μM, 10 min incubation. The class given is biochemical. The method, then:
Mao-A activity was measured using a commercial assay kit according to the manufacturer’s instructions. Mao-A (0.837 μM) was incubated with vehicle (1 % DMSO), Clorgyline (50 μM), or various concentrations (1, 5, or 25 μM) of EN460, I2, I26, or I29 for 10 min. Mao-A catalyzes the oxidative deamination of p-tyramine, generating H2O2, which was quantified fluorimetrically (λex= 530; λem= 585 nm). Mao-A activity is presented as a percentage of the vehicle control.

In a further experiment the target is recombinant PDI (Homo sapiens, UniProt P07237). Briefly: PDI activity assay (insulin transhydrogenase / insulin turbidity assay). To be noted: 25 μM, 15 min incubation. The format is biochemical. The method, then:
PDI activity was assessed using an insulin transhydrogenase assay. Bovine insulin (1 mg/mL) in sodium phosphate buffer, pH 7.0, containing 2 mM EDTA, was incubated with 1.4 μM recombinant PDI in the presence of vehicle (1 % DMSO) or various concentrations of isoquercetin (30 or 60 μM), EN460, I2, I26, or I29 (1, 5, or 25 μM) for 15 min. The turbidimetric assay of insulin disulfide reduction by PDI was initiated by adding 1 mM dithiothreitol, and the reaction was monitored at 650 nm for 80 min. PDI activity is presented as a percentage of the vehicle control.

A further experiment concerns the target T2, recombinant ERO1A (Mus musculus, UniProt Q8R180).
T2 construct: GST-SMT3-mouse ERO1A (residues 43–464); GST-SMT3 (GST-SUMO) (N, cleaved yes); made in house; host or cells: E. coli Rosetta DE3 (Novagen)
T2 sequence (Q8R180 43-464): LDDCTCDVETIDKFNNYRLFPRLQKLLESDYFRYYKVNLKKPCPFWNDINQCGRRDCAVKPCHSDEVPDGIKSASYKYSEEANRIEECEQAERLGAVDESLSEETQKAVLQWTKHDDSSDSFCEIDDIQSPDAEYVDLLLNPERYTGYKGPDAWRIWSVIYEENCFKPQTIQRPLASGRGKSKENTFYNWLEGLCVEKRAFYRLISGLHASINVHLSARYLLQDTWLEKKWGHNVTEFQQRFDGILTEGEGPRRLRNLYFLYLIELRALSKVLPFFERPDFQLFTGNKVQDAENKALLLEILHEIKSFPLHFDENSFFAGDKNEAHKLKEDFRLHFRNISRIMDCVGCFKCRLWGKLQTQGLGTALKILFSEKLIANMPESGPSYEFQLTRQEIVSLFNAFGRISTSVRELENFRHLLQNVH
Further details: method as in PMID 39962052. To be noted: SAR of I1–I23, Fig. 8A; cited from earlier work.

One may read the IC50 as the midpoint of a concentration-inhibition curve.

Chain of recombinant PDI (P07237 18-508, species assumed): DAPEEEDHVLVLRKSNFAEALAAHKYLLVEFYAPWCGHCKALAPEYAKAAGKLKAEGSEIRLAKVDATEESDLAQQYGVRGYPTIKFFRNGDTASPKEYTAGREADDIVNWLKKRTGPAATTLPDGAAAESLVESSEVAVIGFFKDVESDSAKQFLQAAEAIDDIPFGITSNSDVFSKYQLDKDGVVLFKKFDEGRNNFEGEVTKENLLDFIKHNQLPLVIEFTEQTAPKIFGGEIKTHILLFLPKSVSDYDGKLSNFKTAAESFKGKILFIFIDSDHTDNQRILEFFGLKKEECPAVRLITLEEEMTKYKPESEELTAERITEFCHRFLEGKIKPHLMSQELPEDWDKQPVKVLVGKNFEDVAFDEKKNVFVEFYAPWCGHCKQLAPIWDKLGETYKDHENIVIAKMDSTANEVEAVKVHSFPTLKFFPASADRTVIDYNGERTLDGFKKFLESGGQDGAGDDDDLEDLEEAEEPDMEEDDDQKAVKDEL

Turning to `O=C1/C(=C/c2ccc(-c3ccccc3)o2)C(C(F)(F)F)=NN1c1ccc(Cl)cc1Cl` [I2], the “metabolic activity (MTS assay)” value with MDAMB231 cells is given as “significantly reduced metabolic activity”. The VEGFA levels result with E0771 tumors is on record as “reduced VEGFA levels”. Further, in experiment [1], the “Mao-A activity (percentage of the vehicle control)” value was “inhibited Mao-A activity”. Also, the “PDI activity (percentage of the vehicle control)” value on recombinant PDI is listed as “inhibited PDI activity”. Also, on recombinant ERO1A, the “ERO1 inhibitory activity (in words)” value is given as “retained activity” and the IC50 is 8 µM.

Values taken from PMC13198932, “Pyrazolone-based ERO1 inhibitors in ERO1-driven triple-negative breast cancer and SEPN1-related myopathy: Structure–activity relationship and therapeutic potential” (Pharmacological research, 2025).
